Values after ≈ are worked out from the molar mass of the structure shown. Active and inactive are the calls of the source. The rule behind the calls is not given here. Peptide text beside a SMILES is read from it.
Key:
Staphylococcus aureus [1] = assay: Antimicrobial activity against Staphylococcus aureus ATCC 25923 assessed as reduction in bacterial growth by broth dilution method; format: functional
Staphylococcus aureus [2] = assay: Antimicrobial activity against multi-drug resistant Staphylococcus aureus assessed as reduction in bacterial growth by broth dilution method; format: functional
[3] = tested on: Staphylococcus epidermidis; assay: Antimicrobial activity against multi-drug resistant Staphylococcus epidermidis assessed as reduction in bacterial growth by broth dilution method; format: functional
Enterococcus faecalis = assay: Antimicrobial activity against multi-drug resistant Enterococcus faecalis assessed as reduction in bacterial growth by broth dilution method; format: functional
Escherichia coli [4] = assay: Antimicrobial activity against Escherichia coli ATCC 25922 assessed as reduction in bacterial growth by broth dilution method; format: functional
Klebsiella pneumoniae = assay: Antimicrobial activity against multi-drug resistant Klebsiella pneumoniae assessed as reduction in bacterial growth by broth dilution method; format: functional
[5] = Hemolytic activity in human Red blood cell assessed as hemolysis incubated for 1 hrs by microplate reader based analysis; format: toxicity; details: erythrocyte
L02 = assay: Cytotoxicity against human LO2 cells at 2 to 256 uM measured after 24 hrs by CCK-8 method; format: toxicity, cell-based; details: l02, 24 h, dose 2-256 µM
Staphylococcus aureus [6] = assay: Antimicrobial activity against multi-drug resistant Staphylococcus aureus assessed as reduction in bacterial growth in presence of KCl; format: functional, organism-based
Escherichia coli [7] = assay: Antimicrobial activity against multi-drug resistant Escherichia coli assessed as reduction in bacterial growth in presence of NaCl; format: functional, organism-based
Escherichia coli [8] = assay: Antimicrobial activity against multi-drug resistant Escherichia coli assessed as reduction in bacterial growth in presence of MgCl2; format: functional, organism-based
Escherichia coli [9] = assay: Antimicrobial activity against multi-drug resistant Escherichia coli assessed as reduction in bacterial growth in presence of FeCl3; format: functional, organism-based
Staphylococcus aureus [10] = assay: Antimicrobial activity against multi-drug resistant Staphylococcus aureus assessed as reduction in bacterial growth measured after 6 hrs in 25% plasma; format: functional, organism-based
Escherichia coli [11] = assay: Antimicrobial activity against multi-drug resistant Escherichia coli assessed as reduction in bacterial growth measured after 6 hrs in 25% plasma; format: functional, organism-based
Escherichia coli [12] = assay: Antimicrobial activity against multi-drug resistant Escherichia coli assessed as reduction in bacterial growth at 2 times MIC measured after 1 hrs in presence of trypsin by microplate reader based analysis; format: functional, organism-based
Staphylococcus aureus [13] = assay: Antimicrobial activity against multi-drug resistant Staphylococcus aureus assessed as reduction in bacterial growth at 2 times MIC measured after 1 hrs in presence of chymotrypsin by microplate reader based analysis; format: functional, organism-based
Staphylococcus aureus [14] = assay: Antibacterial activity against Staphylococcus aureus ATCC 25923 at sub-inhibitory concentration measured after 15 passages for 18 hrs; format: functional
Staphylococcus aureus [15] = assay: Bactericidal activity against multi-drug resistant Staphylococcus aureus assessed as eradication of bacterial growth at 2 times MIC by time-kill kinetic assay; format: functional, organism-based; details: time 120-720 min
Escherichia coli [16] = assay: Bactericidal activity against multi-drug resistant Escherichia coli assessed as eradication of bacterial growth at 2 times MIC by time-kill kinetic assay; format: functional, organism-based; details: time 120-720 min
Staphylococcus aureus [17] = assay: Bactericidal activity against multi-drug resistant Staphylococcus aureus assessed as eradication of bacterial growth at 2 times MIC measured after 3 hrs by time-kill kinetic assay relative to control; format: functional
Escherichia coli [18] = assay: Bactericidal activity against multi-drug resistant Escherichia coli assessed as eradication of bacterial growth at 2 times MIC measured after 3 hrs by time-kill kinetic assay relative to control; format: functional
Cell membrane [19] = assay: Disruption of cell membrane in multi-drug resistant Staphylococcus aureus assessed as appearance of ruptured cell membrane at 2 times MIC measured for 120 mins by transmission electron microscopy analysis; format: subcellular
Cell membrane [20] = assay: Disruption of cell membrane in multi-drug resistant Staphylococcus aureus assessed as stomatal formation at 2 times MIC measured for 120 mins by transmission electron microscopy analysis; format: subcellular
Cell membrane [21] = assay: Disruption of cell membrane in multi-drug resistant Staphylococcus aureus assessed as cell shrinkage at 2 times MIC measured for 120 mins by transmission electron microscopy analysis; format: subcellular
Cell membrane [22] = assay: Disruption of cell membrane in multi-drug resistant Staphylococcus aureus assessed as release of cell content at 2 times MIC measured for 120 mins by transmission electron microscopy analysis; format: subcellular
Cell membrane [23] = assay: Disruption of cell membrane in multi-drug resistant Escherichia coli assessed as appearance of cell shrinkage at 2 times MIC measured for 120 mins by transmission electron microscopy analysis; format: subcellular
Cell membrane [24] = assay: Disruption of cell membrane in multi-drug resistant Staphylococcus aureus assessed as increase in red fluorescence intensity of PI at 2 times MIC measured for 2 hrs by fluorescence confocal microscopic imaging based analysis; format: subcellular
Escherichia coli [25] = assay: Bactericidal activity against multi-drug resistant Escherichia coli at 1 times MIC preincubated with LPS for 1 hrs followed by bacterial addition and measured after 18 hrs by microplate reader based analysis; format: functional, organism-based; details: time 19.0 hrs
Cell membrane [26] = assay: Induction of cytoplasmic membrane depolarization in multi-drug resistant Escherichia coli at 1 to 4 times MIC measured within 1 min by DiSC3-5 fluorescent dye based analysis
Cell membrane [27] = assay: Induction of cytoplasmic membrane depolarization in multi-drug resistant Staphylococcus aureus at 1 to 4 times MIC measured within 1 min by DiSC3-5 fluorescent dye based analysis
Staphylococcus aureus [28] = assay: Antibiofilm activity against multi-drug resistant Staphylococcus aureus measured after 24 hrs by crystal violet staining based analysis; format: functional, organism-based
Escherichia coli [29] = assay: Antibiofilm activity in […] assessed as eradication of formed biofilm by measuring reduction in viable bacterial count measured after 12 hrs by confocal microscopy based analysis; format: functional, organism-based
Staphylococcus aureus [30] = assay: Antibiofilm activity in methicillin-resistant Staphylococcus aureus assessed as eradication of formed biofilm at 1 to 4 times MIC measured after 12 hrs by confocal microscopy based analysis; format: functional, organism-based
Staphylococcus aureus [31] = assay: Additive antimicrobial activity against multi-drug resistant Staphylococcus aureus assessed as fractional inhibition concentration index in presence levofloxacin by microplate reader analysis; format: functional
Escherichia coli [32] = assay: Antibacterial activity against Escherichia coli ATCC 25922 infected in male Kunming mouse model assessed as reduction in bacterial load measured after 11 days in presence of levofloxacin; format: functional, organism-based; details: time 11.0 day
Escherichia coli [33] = assay: Antibacterial activity against multidrug resistant Escherichia coli infected in male Kunming mouse model assessed as reduction in bacterial load measured after 11 days in presence of levofloxacin; format: functional, organism-based; details: time 11.0 day
Escherichia coli [34] = assay: Antibacterial activity against multidrug resistant Escherichia coli infected in male Kunming mouse model assessed as recovery of mouse weight measured after 11 days in presence of levofloxacin; format: functional, organism-based; details: time 11.0 day
Escherichia coli [35] = assay: Antibacterial activity against multidrug resistant Escherichia coli infected in male Kunming mouse model assessed as reduction in wound size measured after 3 to 5 days by caliper method; format: functional, organism-based; details: time 3-5 day
Escherichia coli [36] = assay: Antibacterial activity against multidrug resistant Escherichia coli infected in male Kunming mouse model assessed as scabs thickening measured after 7 days by caliper method; format: functional, organism-based; details: time 7.0 day
Escherichia coli [37] = assay: Antibacterial activity against multidrug resistant Escherichia coli infected in male Kunming mouse model assessed as reduction in vascular congestion in presence of levofloxacin by H and E staining based analysis; format: functional, organism-based
Escherichia coli [38] = assay: Antibacterial activity against multidrug resistant Escherichia coli infected in male Kunming mouse model assessed as reduction in tissue hemorrhage in presence of levofloxacin by H and E staining based analysis; format: functional, organism-based
Escherichia coli [39] = assay: Antibacterial activity against multidrug resistant Escherichia coli infected in male Kunming mouse model assessed as reduction in inflammatory cell infiltration in presence of levofloxacin by H and E staining based analysis; format: functional, organism-based
Escherichia coli [40] = assay: Antibacterial activity against multidrug resistant Escherichia coli infected in male Kunming mouse model assessed as reduction in IL-6 expression by immunochemical analysis; format: functional, organism-based

With `CC[C@H](C)[C@H](NC(=O)[C@H](CCCCN)NC(=O)[C@@H](NC(=O)[C@H](CCCCN)NC(=O)[C@@H]1CCCN1C(=O)[C@H](Cc1c[nH]c2ccccc12)NC(=O)[C@H](Cc1c[nH]c2ccccc12)NC(=O)[C@H](Cc1c[nH]c2ccccc12)NC(=O)[C@@H]1CCCN1C(=O)[C@H](CCCCN)NC(=O)[C@@H](NC(=O)[C@H](CCCCN)NC(=O)[C@@H](NC(=O)[C@@H](N)CCCCN)[C@@H](C)CC)[C@@H](C)CC)[C@@H](C)CC)C(=O)N[C@@H](CCCCN)C(N)=O` (H-KIKIKPWWWPKIKIK-NH2) the MIC (Staphylococcus aureus [1]) was 8 µM (≈ 15.9 µg/mL), the MIC (Staphylococcus aureus [2]) was 8 µM (≈ 15.9 µg/mL) and the MIC [3] was 4 µM (≈ 7.97 µg/mL). The MIC (Enterococcus faecalis) was 4 µM (≈ 7.97 µg/mL), the MIC (Escherichia coli [4]) was 4 µM (≈ 7.97 µg/mL) and the MIC (Klebsiella pneumoniae) was 4 µM (≈ 7.97 µg/mL). For the same molecule, the HC10 [5] was over 256 µM, the Activity (L02) was “Toxic” and the Activity (Staphylococcus aureus [6]) was “Active”. For the same molecule, the Activity (Escherichia coli [7]) was “Active”, the Activity (Escherichia coli [8]) was “Active” and the Activity (Escherichia coli [9]) was “Active”. For the same molecule, the Activity (Staphylococcus aureus [10]) was “Active”, the Activity (Escherichia coli [11]) was “Active” and the Activity (Escherichia coli [12]) was “inactive”. For the same molecule, the Activity (Staphylococcus aureus [13]) was “inactive”, the Activity (Staphylococcus aureus [14]) was “Active” and the Activity (Staphylococcus aureus [15]) was “Time-dependent-effect”. For the same molecule, the Activity (Escherichia coli [16]) was “Time-dependent-effect”, the Activity (Staphylococcus aureus [17]) was 100% and the Activity (Escherichia coli [18]) was 100%. For the same molecule, the Activity (Cell membrane [19]) was “Active”, the Activity (Cell membrane [20]) was “Active” and the Activity (Cell membrane [21]) was “Active”. The Activity (Cell membrane [22]) was “Active”, the Activity (Cell membrane [23]) was “Active” and the Activity (Cell membrane [24]) was “Active”. For the same molecule, the Activity (Escherichia coli [25]) was “inactive”, the Activity (Cell membrane [26]) was “Active” and the Activity (Cell membrane [27]) was “Active”. The Activity (Staphylococcus aureus [28]) was “Dose-dependent-effect”, the Activity (Escherichia coli [29]) was “Dose-dependent-effect” and the Activity (Staphylococcus aureus [30]) was “Active”. For the same molecule, the “fractional inhibitory concentration index (FICI)” value (Staphylococcus aureus [31]) was 0.75, the Activity (Escherichia coli [32]) was “Active” and the Activity (Escherichia coli [33]) was “Active”. For the same molecule, the Activity (Escherichia coli [34]) was “Active”, the Activity (Escherichia coli [35]) was “Active” and the Activity (Escherichia coli [36]) was “Active”. The Activity (Escherichia coli [37]) was “Active”, the Activity (Escherichia coli [38]) was “Active” and the Activity (Escherichia coli [39]) was “Active”. For the same molecule, the Activity (Escherichia coli [40]) was “Active”.
